Test results published in US8993565B2, “(6-oxo-1,6-dihydropyrimidin-2-yl)amide derivatives, preparation thereof and pharmaceutical use thereof as AKT(PKB) phosphorylation inhibitors” (Sanofi, priority 2009, dated 2015).

Tested on: AKT protein phosphorylated on serine 473 (pAKT-S473)
Test: Study of pAKT expression in PC3 human prostate carcinoma cells measured by western blotting (Test A)
Assay type: cell-based
Conditions: PC-3, inhibition of AKT phosphorylation (pAKT-S473), 1 to 2 hours incubation, absolute IC50, mean of two experiments
Description: (§1) The inhibitory activity of the molecules on AKT phosphorylation is measured either by western blotting using the technique described below, or by the MSD Multi-spot Biomarker detection technique from Meso Scale Discovery also described below.
Study of pAKT Expression in PC3 Human Prostate Carcinoma Cells Measured by Western Blotting (Test A):
(§2) On day 2, the cells are incubated in the presence or absence of the test products for 1 to 2 hours at 37° C. in the presence of 5% CO2. The molecules, diluted in dimethyl sulphoxide (DMSO Sigma #D2650), are added from a 10-times concentrated stock solution, the final percentage of DMSO being 0.1%. The molecules are tested either at a single concentration of less than or equal to 10 μM, or at increasing concentrations in a range that can extend from less than 1 nM to 10 μM.
After this incubation, the cells are lysed for the preparation of the proteins.
The lysate is centrifuged for 10 min at 6000 rpm. 155 μl of supernatant are recovered. 150 μl are incubated for denaturation for 5 min at 95° C. in the presence of 4× NuPAGE LDS Sample Buffer diluted 4-fold (InVitrogen ref NP0007) and of 10× NuPAGE Sample Reducing Agent diluted 10-fold (InVitrogen ref NP0009). These samples are then frozen at −20° C.
The gel is then transferred on to an Invitrolon PVDF membrane (Invitrogen #LC2007) permeabilised beforehand and for a few seconds in ethanol (Ethanol Fischer Scientific #E/0600DF/15).
The transfer is carried out in a Biorad tank at 30 volts overnight or at 60 volts for 3 hours, in the presence of 20× NUPAGE Transfer Buffer diluted 20-fold (InVitrogen ref NP0006).
The membrane is then saturated in saturating solution composed of TBS (10× Tris Buffered Saline, Sigma #T5912, diluted 10-fold), 0.1% Tween (Sigma #P5927) and 3% BSA (Bovine Albumin Serum Fraction V, Sigma #A4503) for 6 h after overnight transfer or else for 1 h after transfer for a period of 3 h.
Two rinses for min in washing solution composed of TBS and 0.1% Tween 20 are carried out before hybridisation of the secondary antibodies.
The secondary antibodies are diluted 110000th for the rabbit anti-Mouse IgG HRP antibody (W402 Promega) and to 110000th for the goat anti-Rabbit IgG HRP antibody (W401 Promega) in saturating solution, and then shaken for 1 h at ambient temperature.
Two rinses for 30 min in washing solution are carried out and then a rinse for 5 min in H2O is carried out in order to eliminate the remaining Tween 20.
The luminescence is read with the FujiFilm device (Ray Test).
The FUJI device measures the total luminescence signal obtained (AU) for each band selected. It then subtracts the background noise (BG) proportional to the size of the band selected (Area), said background noise being calculated from a specific background noise band, with a view to obtaining the specific signal (AU-BG) for each band. The band obtained in the absence of product and in the presence of 0.1% DMSO is considered to be the 100% signal. The software calculates the % specific activity (Ratio) obtained for each band selected as a function of this 100% signal. The percentage inhibition is calculated for each concentration according to the formula (100%−Ratio).
Two independent experiments make it possible to calculate the mean of the percentages of inhibition obtained at a given concentration for the products tested only at one concentration.
Two independent experiments make it possible to calculate the mean of the IC50s.

Row | SMILES | IC50 [nM]
1 | O=C(Cc1nc(N2CCOCC2)cc(=O)[nH]1)Nc1ccc(F)c(C2CC2)c1 [Example 52, N-(3-cyclopropyle-4-fluorophenyl)-2-[4-(morpholin-4-yl)-6-oxo-1,6-dihydropyrimidin-2-yl]acetamide] | 227
2 | O=C(Cc1nc(N2CCOCC2)cc(=O)[nH]1)Nc1ccccc1F [Example 9, N-(2-fluorophenyl)-2-[4-(morpholin-4-yl)-6-oxo-1,6-dihydropyrimidin-2-yl]acetamide] | 727
3 | Cc1cccc(NC(=O)Cc2nc(N3CCOCC3)cc(=O)[nH]2)c1C [Example 40, N-(2,3-dimethylphenyl)-2-[4-(morpholin-4-yl)-6-oxo-1,6-dihydropyrimidin-2-yl]acetamide] | 1490
4 | O=C(Cc1nc(N2CCOCC2)cc(=O)[nH]1)N1CCc2ccccc21 [Example 51, 2-[2-(2,3-dihydro-1 H-indol-1-yl)-2-oxoethyl]-6-(morpholin-4-yl)pyrimidin-4(3H)-one] | 133
5 | O=C(Cc1nc(N2CCOCC2)cc(=O)[nH]1)Nc1cc(F)c(F)c(F)c1 [Example 34, 2-[4-(morpholin-4-yl)-6-oxo-1,6-dihydropyrimidin-2-yl]-N-(3,4,5-trifluorophenyl)acetamide] | 609
6 | O=C(Cc1nc(N2CCOCC2)cc(=O)[nH]1)Nc1ccc(F)cc1O [Example 50, N-(4-fluoro-2-hydroxyphenyl)-2-[4-(morpholin-4-yl)-6-oxo-1,6-dihydropyrimidin-2-yl]acetamide] | 6720
7 | COC(=O)c1cc(NC(=O)Cc2nc(N3CCOCC3)cc(=O)[nH]2)ccc1F [Example 57, methyl 2-fluoro-5-({[4-(morpholin-4-yl)-6-oxo-1,6-dihydropyrimidin-2-yl]acetyl}amino)benzoate] | 5860

Further lines, results first:

Row | IC50 [nM] | SMILES
8 | 308 | CC(C)Oc1cccc(NC(=O)Cc2nc(N3CCOCC3)cc(=O)[nH]2)c1 [Example 44, 2-[4-(morpholin-4-yl)-6-oxo-1,6-dihydropyrimidin-2-yl]-N-[3-(propan-2-yloxy)phenyl]acetamide]
9 | 2290 | N#Cc1cccc(NC(=O)Cc2nc(N3CCOCC3)cc(=O)[nH]2)c1 [Example 26, N-(3-cyanophenyl)-2-[4-(morpholin-4-yl)-6-oxo-1,6-dihydropyrimidin-2-yl]acetamide]
10 | 850 | COc1cccc(NC(=O)Cc2nc(N3CCOCC3)cc(=O)[nH]2)c1 [Example 16, N-(3-methoxyphenyl)-2-[4-(morpholin-4-yl)-6-oxo-1,6-dihydropyrimidin-2-yl]acetamide]
11 | 116 | O=C(Cc1nc(N2CCOCC2)cc(=O)[nH]1)Nc1ccc(F)c(Cl)c1 [Example 29, N-(3-chloro-4-fluorophenyl)-2-[4-(morpholin-4-yl)-6-oxo-1,6-dihydropyrimidin-2-yl]acetamide]
12 | 171 | Cc1cc(NC(=O)Cc2nc(N3CCOCC3)cc(=O)[nH]2)ccc1F [Example 28, N-(4-fluoro-3-methylphenyl)-2-[4-(morpholin-4-yl)-6-oxo-1,6-dihydropyrimidin-2-yl]acetamide]
13 | 632 | COc1ccccc1NC(=O)Cc1nc(N2CCOCC2)cc(=O)[nH]1 [Example 11, N-(2-methoxyphenyl)-2-[4-(morpholin-4-yl)-6-oxo-1,6-dihydropyrimidin-2-yl]acetamide]
14 | 10000 | O=C(Cc1nc(N2CCOCC2)cc(=O)[nH]1)Nc1cccc(OCCO)c1 [Example 55, N-[3-(2-hydroxyethoxy)phenyl]-2-[4-(morpholin-4-yl)-6-oxo-1,6-dihydropyrimidin-2-yl]acetamide]
15 | 23 | O=C(Cc1nc(N2CCOCC2)cc(=O)[nH]1)Nc1cccc(Br)c1 [Example 18, N-(3-bromophenyl)-2-[4-(morpholin-4-yl)-6-oxo-1,6-dihydropyrimidin-2-yl]acetamide]
16 | 23 | O=C(Cc1nc(N2CCOCC2)cc(=O)[nH]1)Nc1ccc(F)c(F)c1 [Example 6, N-(3,4-difluorophenyl)-2-[4-(morpholin-4-yl)-6-oxo-1,6-dihydropyrimidin-2-yl]acetamide]
17 | 3640 | O=C(Cc1nc(N2CCOCC2)cc(=O)[nH]1)Nc1cccc(O)c1 [Example 32, N-(3-hydroxyphenyl)-2-[4-(morpholin-4-yl)-6-oxo-1,6-dihydropyrimidin-2-yl]acetamide]
18 | 184 | C#Cc1cccc(NC(=O)Cc2nc(N3CCOCC3)cc(=O)[nH]2)c1 [Example 48, N-(3-ethynylphenyl)-2-[4-(morpholin-4-yl)-6-oxo-1,6-dihydropyrimidin-2-yl]acetamide]

Tested on: AKT protein phosphorylated on serine 473 (P-AKT-S473)
Test: Study of pAKT expression in PC3 human prostate carcinoma cells measured by the MSD Multi-spot Biomarker Detection technique (Test B)
Assay type: cell-based
Conditions: PC-3, inhibition of AKT phosphorylation (P-AKT-S473), MSD sandwich immunoassay, 1 to 2 h incubation, absolute IC50, mean of 2 experiments
Description: as §1
Study of pAKT Expression in PC3 Human Prostate Carcinoma Cells Measured by the MSD Multi-Spot Biomarker Detection Technique from Meso Scale Discovery (Test B):
The primary antibody specific for P-AKT-S473 (Kit #K151CAD) is coated on to an electrode in each well of the 96-well plates of the MSD, kit: after the addition of a protein lysate to each well, the signal is visualised by adding a secondary detection antibody labelled with an electrochemoluminescent compound. The procedure followed is that described in the kit.
as §2, with “h” for “hours”, “5% of” for “5%”, “20-times” for “10-times”
After this incubation, the cells are lysed for the preparation of the proteins. […] At this stage, the plates containing the lysates can be stored at −20° C. or at −80° C.
The wells of the 96-well plates of the MSD kit are saturated for 1 h at ambient temperature with the blocking solution of the MSD kit. Four washes are carried out with 150 μl of Tris Wash Buffer of the MSD kit. The lysates previously prepared are transferred into the 96-well multi-spot plates of the MSD kit and incubated for 1 h at ambient temperature, with shaking. Four washes are carried out with 150 μl of Tris Wash Buffer of the MSD kit. 25 μl of the MSD sulfo-tag detection antibody solution are added to the wells and incubated for 1 h at ambient temperature, with shaking. Four washes are carried out with 150 μl of Tris Wash Buffer of the MSD kit. 150 μl of Read Buffer of the MSD kit are added to the wells and the plates are read immediately on the S12400 instrument from Meso Scale Discovery.
The instrument measures a signal for each well. Wells without cells and containing the lysis buffer serve to determine the background noise that will be subtracted from all the measurements (min). The wells containing cells in the absence of product and in the presence of 0.1% DMSO are considered to be the 100% signal (max). The percentage inhibition is calculated for each concentration of test product according to the following formula: (1-((test-min)(max-min)))×100.
2 independent experiments make it possible to calculate the mean of the IC50 values.

Row | IC50 [nM] | SMILES
19 | 57 | C[C@H]1CN(C(=O)Cc2nc(N3CCOCC3)cc(=O)[nH]2)c2ccccc21 [Example 126, 2-{2-[(3R)-3-methyl-2,3-di hydro-1H-indol-1-yl]-2-oxoethyl}-6-(morpholin-4-yl)pyrimidin-4(3H)-one]
20 | 69 | Cn1c(CC(=O)N2CCc3c2ccc(F)c3F)nc(N2CCOCC2)cc1=O [Example 128, 2-[2-(4,5-difluoro-2,3-dihydro-1H-indol-1-yl)-2-oxoethyl]-3-methyl-6-(morpholin-4-yl)pyrimidin-4(3H)-one]
21 | 19 | C[C@H]1Cc2ccccc2N1C(=O)Cc1nc(N2CCOCC2)cc(=O)[nH]1 [Example 117, 2-{2-[(2S)-2-methyl-2,3-dihydro-1H-indol-1-yl]-2-oxoethyl}-6-(morpholin-4-yl)pyrimidin-4(3 H)-one]
22 | 63 | Cn1c(CC(=O)Nc2ccc(F)c(I)c2)nc(N2CCOCC2)cc1=O [Example 93, N-(3-iodo-4-fluorophenyl)-2-[1-methyl-4-(morpholin-4-yl)-6-oxo-1,6-dihydropyrimidin-2-yl]acetamide]
23 | 16 | C[C@@H]1CN(C(=O)Cc2nc(N3CCOCC3)cc(=O)[nH]2)c2ccccc21 [Example 125, 2-{2-[(3S)-3-methyl-2,3-dihydro-1H-indol-1-yl]-2-oxoethyl}-6-(morpholin-4-yl)pyrimidin-4(3 H)-one]
24 | 71 | O=C(Cc1nc(N2CCOCC2)cc(=O)[nH]1)N1CCc2c(O)cccc21 [Example 91, 2-[2-(4-hydroxy-2,3-dihydro-1H-indol-1-yl)-2-oxoethyl]-6-(morpholin-4-yl)pyrimidin-4(3H)-one]
